Calls of active or inactive are those of the source. The rule behind the calls is not given here.

The text below walks through data of ChEMBL document CHEMBL4420070, “6-6 Fused Bicyclic Heteroaryl Compounds and their Use as LATS Inhibitors” (2018).

The nature of series [1]: Total drug level in cell pellets of human limbal stem cells by LC-MS analysis. The format is ADME.
Series [2] in a line: Total drug level in cell pellets of human corneal endothelium cells by LC-MS analysis. Format: ADME.
Series [3] in a line: Drug level in cell pellets of human corneal endothelium cells by LC-MS analysis. The format is ADME.
Series [4] relates to Mus musculus. The series can be described thus: Inhibition of LATS in C57BL/6J mouse assessed as change in CTGF mRNA expression level at 10 mg/kg, po administered as single dose measured after 2 hrs by qRT-PCR analysis relative to control. The format is functional. Background: Real-time PCR tracks product formation cycle by cycle.
In series [5] the test system is Mus musculus. Nature of the series: Inhibition of LATS in C57BL/6J mouse assessed as change in Cyr61 mRNA expression level at 10 mg/kg, po administered as single dose measured after 2 hrs by qRT-PCR analysis relative to control. Format: functional.
In series [6] the test system is Mus musculus. Nature of the series: Inhibition of LATS in C57BL/6J mouse assessed as change in Ki67 protein expression level at 10 mg/kg, po administered as single dose measured after 24 hrs by immunohistochemistry analysis relative to control. Format: functional.
In series [7] the target is T1, Serine/threonine-protein kinase LATS (Homo sapiens) (UniProt Q9NRM7+O95835). The series can be described thus: Inhibition of LATS in human limbal epithelial cells assessed as induction of limbal stem cell expansion by measuring expansion factor ratio at 10 uM measured after 2 weeks by p63alpha expression detection based immunohistochemistry relative to control. More on the design: scale not given: the % may be the effect or the level left.
T1 sequence (O95835 whole entry, looked up): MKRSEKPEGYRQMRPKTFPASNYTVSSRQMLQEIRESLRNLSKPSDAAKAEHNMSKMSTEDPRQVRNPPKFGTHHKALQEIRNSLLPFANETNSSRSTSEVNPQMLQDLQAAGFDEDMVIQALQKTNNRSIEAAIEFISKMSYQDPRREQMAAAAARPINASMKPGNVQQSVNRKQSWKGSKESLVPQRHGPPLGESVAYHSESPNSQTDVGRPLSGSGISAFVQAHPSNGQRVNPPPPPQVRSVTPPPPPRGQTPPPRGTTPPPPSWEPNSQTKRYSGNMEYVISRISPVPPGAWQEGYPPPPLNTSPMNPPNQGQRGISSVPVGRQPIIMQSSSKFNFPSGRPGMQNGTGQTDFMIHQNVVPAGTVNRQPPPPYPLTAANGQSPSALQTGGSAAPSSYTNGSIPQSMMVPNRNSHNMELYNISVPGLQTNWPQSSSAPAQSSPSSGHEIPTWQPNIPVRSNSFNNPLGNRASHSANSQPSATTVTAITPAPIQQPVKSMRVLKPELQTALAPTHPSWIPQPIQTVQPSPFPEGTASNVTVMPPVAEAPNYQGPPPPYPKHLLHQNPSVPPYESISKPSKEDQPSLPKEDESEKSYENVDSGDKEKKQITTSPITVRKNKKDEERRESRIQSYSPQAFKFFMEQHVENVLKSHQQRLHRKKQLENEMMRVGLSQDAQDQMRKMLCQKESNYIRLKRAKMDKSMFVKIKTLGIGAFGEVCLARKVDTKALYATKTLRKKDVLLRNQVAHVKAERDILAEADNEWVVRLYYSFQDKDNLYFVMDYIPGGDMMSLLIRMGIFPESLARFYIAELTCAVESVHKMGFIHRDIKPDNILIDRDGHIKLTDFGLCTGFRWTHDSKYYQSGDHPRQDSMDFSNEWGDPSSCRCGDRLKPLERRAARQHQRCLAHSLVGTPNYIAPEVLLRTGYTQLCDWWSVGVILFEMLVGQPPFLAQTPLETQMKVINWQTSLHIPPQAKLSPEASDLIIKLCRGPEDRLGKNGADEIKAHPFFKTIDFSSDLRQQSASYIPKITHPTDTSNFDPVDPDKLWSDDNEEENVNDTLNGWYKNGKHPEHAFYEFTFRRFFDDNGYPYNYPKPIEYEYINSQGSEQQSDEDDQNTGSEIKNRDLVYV
T1 sequence (Q9NRM7 whole entry, looked up): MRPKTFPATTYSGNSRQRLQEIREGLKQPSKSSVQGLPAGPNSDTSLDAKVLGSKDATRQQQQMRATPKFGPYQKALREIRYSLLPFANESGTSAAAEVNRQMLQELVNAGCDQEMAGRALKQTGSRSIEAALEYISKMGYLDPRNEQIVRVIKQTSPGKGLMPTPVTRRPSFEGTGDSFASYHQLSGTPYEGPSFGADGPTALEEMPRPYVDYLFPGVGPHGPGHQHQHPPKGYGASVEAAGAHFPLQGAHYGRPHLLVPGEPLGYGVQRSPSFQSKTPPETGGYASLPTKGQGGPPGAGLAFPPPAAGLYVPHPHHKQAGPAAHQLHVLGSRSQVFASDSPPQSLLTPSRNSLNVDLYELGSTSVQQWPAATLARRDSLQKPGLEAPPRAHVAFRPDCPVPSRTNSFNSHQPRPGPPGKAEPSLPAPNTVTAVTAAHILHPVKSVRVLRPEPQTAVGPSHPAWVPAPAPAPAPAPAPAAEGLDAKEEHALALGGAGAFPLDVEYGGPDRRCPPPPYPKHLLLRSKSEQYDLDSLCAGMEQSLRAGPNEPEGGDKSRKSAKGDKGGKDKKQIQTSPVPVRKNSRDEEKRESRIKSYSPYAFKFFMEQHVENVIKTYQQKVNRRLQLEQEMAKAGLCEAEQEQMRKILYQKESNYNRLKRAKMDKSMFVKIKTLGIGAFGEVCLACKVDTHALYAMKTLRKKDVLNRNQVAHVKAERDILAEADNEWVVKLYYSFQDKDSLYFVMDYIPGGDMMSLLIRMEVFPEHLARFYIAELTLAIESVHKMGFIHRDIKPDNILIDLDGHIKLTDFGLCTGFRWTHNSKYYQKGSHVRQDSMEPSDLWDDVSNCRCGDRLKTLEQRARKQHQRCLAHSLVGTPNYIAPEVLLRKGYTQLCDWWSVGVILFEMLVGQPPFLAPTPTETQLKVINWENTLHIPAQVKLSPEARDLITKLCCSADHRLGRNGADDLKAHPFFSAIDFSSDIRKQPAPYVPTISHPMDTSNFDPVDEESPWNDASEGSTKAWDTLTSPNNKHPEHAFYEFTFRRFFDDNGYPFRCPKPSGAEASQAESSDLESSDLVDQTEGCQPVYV

In series [8] the target is T1, Serine/threonine-protein kinase LATS (Homo sapiens). Nature of the series: Inhibition of LATS in human limbal epithelial cells assessed as induction of cell differentiation into corneal epithelial cells by measuring keratin-12 expression at 10 uM incubated for 8 to 10 days followed by medium change to DMEM medium without serum and compound for further incubation for 4 to 8 days by confocal microscopy. Format: cell-based.

Series [9] can be described thus: Drug level in post wash cell pellets of human limbal stem cells by LC-MS analysis. The format is ADME.
The target of series [10] is T1, Serine/threonine-protein kinase LATS (Homo sapiens). The series can be described thus: Inhibition of LATS in human corneal endothelium cells assessed as induction of cell expansion by measuring cell density at 10 uM by Sytox orange dye based epifluorescence microscopy.

Turning to `C[C@H](N(C)c1nc(-c2ccncc2)nc2cnccc12)C(F)(F)F`, the values for the Drug uptake in series [1], in [2] and in series [3] were 340 pg, 0.75 pg and 0.004 to 0.071 nM, respectively.
For the compound `CC(C)(C)Nc1cc(-c2ccncc2)nc2cnccc12`, the “fold change (FC)” value in the series with Mus musculus [4] is on record as 2.5; with Mus musculus [5], 3.9; in the series with Mus musculus [6], 3.1. Further, the Activity was 57 to 97% in [7] and 4310 /mm2 in series [10]. The inhibition result in series [8] was “Active”. Moreover, the Drug uptake in [1] is 83 pg; in series [9], 0.315 to 11 nM.
